The source of these data is patent US10017524B2, “Compound and pharmaceutical composition for neuropsychological disorder or malignant tumor” (KYOTO UNIVERSITY, priority 2012, dated 2018).

The subject of data set [1] is retinoblastoma cell lines WERI. In words: Inhibition of growth of cancer cells (Alamar Blue). In kind it is cell-based. On the procedure: (§1) Specifically, the cells were seeded on a 24 Well plate, and the compounds at a predetermined concentration were added. After cultivation for 5 days, the number of cells was calculated by detecting the fluorescence intensity with Alamar Blue. The culture medium containing the compounds was replaced every day. FIGS. 10 to 12 show an example of the results.

A short description of another data set: Oral absorbability. Format: in vivo, B6J mouse. The conditions noted are these: mouse, oral administration, 100 mg/kg, 5% gum arabic, plasma. The method, then: The oral absorbability of the compound 1 was evaluated under the following conditions.
In data set [2] the test system is phosphorylation of tau protein in the brain. Kind of data set: Inhibition of stress-induced phosphorylation of tau protein in the brain. Format: in vivo. Particulars: mice, 100 mg/kg before stress (ice-cold water 5 minutes), brain tissue western blot. The method, then: The inhibitory activity of the compounds 1 and 2 on the phosphorylation of tau protein in the brain was evaluated. In the evaluation, a system was used which induced the phosphorylation of tau protein by imposing stress on mice (i.e., bathing the mice in ice-cold water for 5 minutes).

Data set [3] relates to phosphorylation of a threonine residue at position 212 of tau protein by DYRK1A protein. In words: Inhibitory activity on phosphorylation of tau protein in cultured cells expressing tau and DYRK1A (western blot, Thr212). Format: cell-based. Particulars: phospho-Thr212 tau. The method, then:
The inhibitory activity of the compounds synthesized in the production examples on the phosphorylation of tau protein was evaluated by an evaluation system using the following cultured cells.
The cultured cells that can induce the expressions of tau protein and DYRK1A protein individually and that allow the phosphorylation of the tau protein to be evaluated depending on the activity of the DYRK1A protein were used in the evaluation system. […] Therefore, the inhibitory activity on the phosphorylation of the tau protein can be evaluated by inducing the expressions of both the tau protein and the DYRK1A protein, and evaluating the degree of phosphorylation of a threonine residue at position 212 of the tau protein.
The compounds 1, 4, and 6 to 9 (10 μM) were added to the evaluation system, and the phosphorylation of the tau protein was detected with the antibody that specifically recognizes the phosphorylation of a threonine residue at position 212 of the tau protein. […] The “control” represents the result of adding no compound.
The inhibitory activity of the compounds 1 and 2 on the phosphorylation of tau protein was evaluated in the same manner as the Experimental example 1.
(§2) The “control” represents the result of adding no compound.
The inhibitory activity of the compounds 3, 6, and 9 to 15 on the phosphorylation of tau protein was evaluated in the same manner as the experimental example 1. FIGS. 7 to 9 show an example of the results.

The target in a further data set is DYRK1A (Homo sapiens, UniProt Q13627). Kind of data set: DYRK1A inhibitory capacity in vitro. Format: biochemical.
From the text: as §2

Data set [4] in a line: Oral absorbability and intracerebral transferability (plasma and brain tissue concentration). Format: in vivo. The conditions noted are these: ICR mouse, 100 mg/kg; for Kp / half-life: male; for Kp: brain tissue / plasma, read-out: Brain tissue/blood ratio (B/P: mL/g); for half-life: plasma and brain tissue, read-out: Half-life in blood and in brain tissue. On the procedure: The oral absorbability and the intracerebral transferability of the compounds 1 and 2 were evaluated under the following conditions. FIG. 6 and Table 1 show an example of the results.
Experimental animal: 7-week-old male ICR mouse, oral administration
Administered vehicle: 0.5% carboxymethylcellulose
Compound dosage: 100 mg/kg
FIG. 6 and Table 1 show an example of the results of measuring a plasma concentration and a brain tissue concentration after oral administration of the compounds 1 and 2. As shown in FIG. 6 and Table 1, the results confirmed that the compounds 1 and 2 had both oral absorbability and intracerebral transferability.

Data set [5] in a line: Intracerebral transferability after caudal vein administration. Format: in vivo. The conditions noted are these: male, Wistar, intravenous, rat, 2 mg/head. The method, then:
The intracerebral transferability of the compound 1 was evaluated under the following conditions. […] In other words, the intracerebral transferability of the compound 1 was confirmed.
Experimental animal: 8-week-old male Wistar rat (about 300 g), caudal vein administration
Administered vehicle: 20% PPG/8% tween 80/saline (2 mL/head)
Compound dosage: 2 mg/head
Sampling time: 3 minutes after administration for plasma; 7 minutes after administration for cerebrospinal fluid

For data set [6], the system named is memory and learning disabilities induced by amyloid-β peptide (25-35). In words: Remedial action on memory and learning disabilities induced by amyloid-β peptide (water maze, probe test). In kind it is in vivo, Swiss mice. The conditions noted are these: mice, amyloid-β icv, 100 mg/kg twice a day. On the procedure:
The remedial action of the compound 2 on memory and learning disabilities was evaluated. In the evaluation, amyloid-β peptide was administered into the cerebral ventricles of mice, and an evaluation system that induces memory and learning disabilities was used (Maurice et al., 1996). The tests were performed using 6-week-old male Swiss mice, which were divided into groups of 12 (n=12). Amyloid-β peptide (25-35, sequence: Gly-Ser-Asn-Lys-Gly-Ala-Ile-Ile-Gly-Leu-Met) (SEQ ID NO: 1) or scrambled amyloid-β (25-35, sequence: Ala-Lys-Ile-Gly-Asn-Ser-Ile-Gly-Leu-Met-Gly) (SEQ ID NO: 2) which was used as control peptide, was dissolved in distilled water, and each of the peptide solutions was incubated at 37° C. for 4 days.
The compound 2 for medication was dissolved in DMSO, and then diluted with 0.5% methylcellulose, thereby preparing a 10 mg/mL solution. […]
In order to evaluate a reference memory, water maze was performed three times a day using a circular pool (140 cm in diameter and 40 cm in height) and a platform (10 cm in diameter) between the 8th day and the 12th day of the tests. […] During the recording, the total time the mice spent in one-fourth of the area of the circle, including the place where the platform had been located until the previous day, was recorded. […]

Another data set relates to PC-9-GR-high lines. Kind of data set: Growth inhibition, microscopic observation. Format: cell-based, human. The conditions noted are these: microscope.
Data set [7] relates to human lung adenocarcinoma-derived cell lines (PC-9). Kind of data set: Growth inhibition, microscopic observation. Particulars: PC-9 lines, microscope. In kind it is cell-based.
Data set [8] has as its system PC-9-GR-step lines (gefitinib-resistant sub-lines of PC-9). In words: Growth inhibition, microscopic observation. Format: cell-based, human. Particulars: microscope.
The test system of data set [9] is MDA-MB-468 human breast cancer cells (triple-negative). In words: Growth inhibition, adherent and non-adherent culture (Alamar Blue). Particulars: MDA-MB-468, cells cultured to prevent adhering. In kind it is cell-based. On the procedure: as §1
(§3) In addition, the effect was also confirmed when the target cells were cultured to prevent them from adhering to each other.

The test system of data set [10] is MDA-MB-453 human breast cancer cells (triple-negative). The data set is described as above. The conditions noted are these: MDA-MB-453, cells cultured to prevent adhering. In kind it is cell-based. The method, then:
as §1, §3

Setting [11] is: compounds of 10 μM, cells expressing tau and DYRK1A.

Consider `CCN1/C(=C/C(C)=O)Sc2ccc3c(c21)CCO3` [Compound 1, (Z)-1-[1-ethyl-7,8-dihydrobenzofuro[4,5-d]thiazol-2(1H)-ylidene]propan-2-one], for which the “inhibitory effect on the growth of the cancer cells” value in data set [1] was “inhibitory effect”. The oral absorbability entry in “Oral absorbability” is recorded as “confirmed”. For the same compound, the “inhibition of stress-induced phosphorylation of the tau protein in brain” value in [2] is given as “could inhibit the stress-induced phosphorylation of the tau protein”. Also, the “inhibitory effect on the phosphorylation of the tau protein” value (from here on “inhibitory effect on the phosphorylation”) in data set [3] (compounds at 0.3 to 10 μM) was “significant inhibitory effect”. Besides, the “inhibitory effect on the phosphorylation” value in [3] (setting [11]) is “significant inhibitory effect”. Also, the IC50 against DYRK1A worked out at 49 nM. Further, in data set [4], the Maximum blood concentration came out at 1900 ng/mL; the “Maximum brain tissue concentration” value came out at 1700 ng/g; the “Time to maximum concentration in blood and in brain tissue” value is recorded as “within 15 minutes”; the Kp was roughly 0.9. Moreover, the half-life in data set [4] was no more than 1 h. This compound also came in with a concentration at 7 min in data set [5] (cerebrospinal fluid, 7 minutes after administration) of 1.88 µM. The same compound displayed a concentration at 3 min in data set [5] (plasma, 3 minutes after administration) of 13.5 µM.
With `CCN1/C(=C/C(C)=O)Sc2ccc3occc3c21` [Compound 2, (Z)-1-[1-ethyl-7,8-benzofuro[4,5-d]thiazol-2(1H)-ylidene]propan-2-one], the “inhibition of stress-induced phosphorylation of the tau protein in brain” value in data set [2] is on record as “could inhibit the stress-induced phosphorylation of the tau protein”. In [3] (compounds at 0.3 to 10 μM), the “inhibitory effect on the phosphorylation” value is “significant inhibitory effect”. The compound also showed an IC50 on DYRK1A of 40 nM. Also, in data set [4], the Maximum blood concentration is listed as 8400 ng/mL; the “Maximum brain tissue concentration” value worked out at 8500 ng/g; the “Time to maximum concentration in blood and in brain tissue” value is 2 h; the Kp is roughly 1. Further, the half-life in [4] was no less than 4 h. Besides, the “reference memory in water maze (time to reach the platform)” value in [6] (8th to 12th day) is “improved the reduced memory and learning abilities”. The “probe test (time spent around the platform)” value in [6] (13th day) is “improved the reduced memory and learning abilities”.
`O=C1NC(=S)S/C1=C\c1ccc2c(c1)CCO2` [Compound 4, (Z)-5-[(2,3-dihydrobenzofuran-5-yl)methylene]-2-thioxothiazolidin-4-one]: in [3] (setting [11]), the “inhibitory effect on the phosphorylation” value is on record as “inhibitory effect”.
As for `O=C1NC(=S)S/C1=C\c1ccc2oc3ccccc3c2c1` [Compound 6, (Z)-5-[(dibenzo[b,d]furan-2-yl)methylene]-2-thioxothiazolidin-4-one], in data set [3] (setting [11]), the “inhibitory effect on the phosphorylation” value is “significant inhibitory effect”.
As to `N=C1NC(=O)/C(=C/c2ccc3c(c2)CCO3)S1` [Compound 7, (Z)-5-[(2,3-dihydrobenzofuran-5-yl)methylene]-2-iminothiazolidin-4-one], in data set [3] (setting [11]), the “inhibitory effect on the phosphorylation” value is recorded as “significant inhibitory effect”.
Consider `N=C1NC(=O)/C(=C/c2ccc3occc3c2)S1` [Compound 8, (Z)-5-[(benzofuran-5-yl)methylene]-2-iminothiazolidin-4-one], for which the “inhibitory effect on the phosphorylation” value in data set [3] (setting [11]) is recorded as “significant inhibitory effect”.
Still for that read-out and setting: in the case of `N=C1NC(=O)/C(=C/c2ccc3oc4ccccc4c3c2)S1` [Compound 9, (Z)-5-[(dibenzo[b,d]furan-2-yl)methylene]-2-iminothiazolidin-4-one] it was “inhibitory effect”; in that of `CCN1/C(=C/C(C)=O)Sc2ccc3oc4cc(C)c(C)cc4c3c21` [Compound 10, (Z)-1-(8,9-dimethyl-1-ethylbenzo[2,3]benzofuro[4,5-d]thiazol-2(1H)-ylidene)propan-2-one], “inhibitory effect”; in that of `CCN1/C(=C/C(C)=O)Sc2ccc3oc4cc(C)ccc4c3c21` [Compound 11, (Z)-1-(1-ethyl-8-methylbenzo[2,3]benzofuro[4,5-d]thiazol-2(1H)-ylidene)propan-2-one], “inhibitory effect”.
On to `CCN1/C(=C/C(C)=O)Sc2ccc3oc4ccc(C)cc4c3c21` [Compound 12, (Z)-1-(1-ethyl-9-methylbenzo[2,3]benzofuro[4,5-d]thiazol-2(1H)-ylidene)propan-2-one], for which the “inhibitory effect on the phosphorylation” value in data set [3] (setting [11]) was “inhibitory effect”. For the same compound, the “apoptosis-inducing activity on the cancer cells” value (with PC-9-GR-high lines; in data set [7]; in data set [8]) was “excellent apoptosis-inducing activity” throughout.
Turning to `CCN1/C(=C/C(C)=O)Sc2ccc3oc4cc(Cl)ccc4c3c21` [Compound 13, (Z)-1-(8-chloro-1-ethylbenzo[2,3]benzofuro[4,5-d]thiazol-2(1H)-ylidene)propan-2-one], the “inhibitory effect on the phosphorylation” value in data set [3] (setting [11]) is listed as “inhibitory effect”.
In the case of `CCN1/C(=C/C(C)=O)Sc2ccc3oc4ccc(Cl)cc4c3c21` [Compound 14, (Z)-1-(9-chloro-1-ethylbenzo[2,3]benzofuro[4,5-d]thiazol-2(1H)-ylidene)propan-2-one], the “inhibitory effect on the phosphorylation” value in data set [3] (setting [11]) is given as “inhibitory effect”.
As for `O=C1NC(=S)N/C1=C\c1ccc2oc3ccccc3c2c1` [Compound 15, (Z)-5-[(dibenzo[b,d]furan-2-yl)methylene]-2-thioxoimidazolidin-4-one], the “inhibitory effect on the phosphorylation” value in data set [3] (setting [11]) was “inhibitory effect”. The “inhibitory effect on the anchorage-independent growth” value in data set [9] and in [10] was “inhibitory effect” in each case.
